Common to all, as to assay type: biochemical
The target of one assay is T1, JAK1 (Homo sapiens, UniProt P23458).
T1 construct: made in house; host or cells: SF9 insect cells (baculovirus)
The assay is described as follows: JAK1 inhibition (Table 4). The note with it: read-out: JAK1 Ki.

Another assay has as its target T2, TYK2 (Homo sapiens, UniProt P29597).
T2 construct: made in house; host or cells: SF9 insect cells (baculovirus)
T2 sequence (P29597 873-1187): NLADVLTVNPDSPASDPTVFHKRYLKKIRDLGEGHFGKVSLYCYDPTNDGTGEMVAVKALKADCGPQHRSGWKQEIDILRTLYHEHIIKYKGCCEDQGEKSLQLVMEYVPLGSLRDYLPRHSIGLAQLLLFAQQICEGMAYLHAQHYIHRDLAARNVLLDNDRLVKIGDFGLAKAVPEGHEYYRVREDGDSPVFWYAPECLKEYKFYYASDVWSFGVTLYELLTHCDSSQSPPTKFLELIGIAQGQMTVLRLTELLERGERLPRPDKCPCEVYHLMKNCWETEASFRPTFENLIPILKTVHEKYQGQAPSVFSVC
The assay is described as follows: TYK2 inhibition (Table 4).

A further assay has as its target T3, JAK2 (Homo sapiens, UniProt O60674).
T3 construct: made in house; host or cells: SF9 insect cells (baculovirus)
The assay is described as follows: JAK2 inhibition (Table 4). The note with it: read-out: JAK2 Ki.

The next assay addresses T4, JAK3 (Homo sapiens, UniProt P52333).
T4 construct: made in house; host or cells: SF9 insect cells (baculovirus)
Briefly: JAK3 inhibition (Table 4). The settings on record: read-out: JAK3 Ki.

T1 sequence (P23458 852-1154): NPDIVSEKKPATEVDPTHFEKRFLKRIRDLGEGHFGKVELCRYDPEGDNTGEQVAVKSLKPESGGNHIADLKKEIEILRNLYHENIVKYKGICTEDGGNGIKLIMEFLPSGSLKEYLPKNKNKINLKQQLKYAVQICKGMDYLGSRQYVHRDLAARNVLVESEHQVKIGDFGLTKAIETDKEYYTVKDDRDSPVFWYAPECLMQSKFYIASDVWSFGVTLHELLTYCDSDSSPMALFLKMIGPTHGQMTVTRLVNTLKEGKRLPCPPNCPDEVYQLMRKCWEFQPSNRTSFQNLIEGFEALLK
T4 sequence (P52333 783-1124): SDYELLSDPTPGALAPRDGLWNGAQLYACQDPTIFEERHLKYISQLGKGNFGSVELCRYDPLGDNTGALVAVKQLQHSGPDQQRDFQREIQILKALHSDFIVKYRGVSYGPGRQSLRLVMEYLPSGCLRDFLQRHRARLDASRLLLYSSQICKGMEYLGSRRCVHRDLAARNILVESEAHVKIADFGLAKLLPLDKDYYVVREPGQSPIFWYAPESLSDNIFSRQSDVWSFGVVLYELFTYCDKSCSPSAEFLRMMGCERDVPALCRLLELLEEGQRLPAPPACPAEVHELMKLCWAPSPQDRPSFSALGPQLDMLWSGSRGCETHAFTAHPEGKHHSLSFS
T3 sequence (O60674 812-1132): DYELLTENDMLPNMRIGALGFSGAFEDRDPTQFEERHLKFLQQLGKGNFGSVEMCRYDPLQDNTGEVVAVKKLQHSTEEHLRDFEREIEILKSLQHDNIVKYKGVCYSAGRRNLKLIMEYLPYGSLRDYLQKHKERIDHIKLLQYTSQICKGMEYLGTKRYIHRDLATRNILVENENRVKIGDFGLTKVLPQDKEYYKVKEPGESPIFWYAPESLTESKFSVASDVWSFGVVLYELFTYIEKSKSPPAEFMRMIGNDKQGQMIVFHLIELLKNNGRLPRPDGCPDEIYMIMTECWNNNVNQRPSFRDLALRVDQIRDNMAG

Consider `CS(=O)(=O)N1CC[C@@H](n2cnc3cnc4[nH]ccc4c32)C1` [Example 190, 1-((R)-1-Methanesulfonyl-pyrrolidin-3-yl)-1,6-dihydro-1,2,3,5,6-tetraaza-as-indacene], for which the Ki on JAK1 turned out to be 0.0627 µM; on TYK2 it was 0.114 µM; on JAK2, 0.0674 µM; on JAK3, 0.0592 µM.
Take `N#Cc1ccc(CN2CC[C@@H](n3cnc4cnc5[nH]ccc5c43)C2)cc1` [Example 191, 4-[(R)-3-(6H-1,2,3,5,6-Tetraaza-as-indacen-1-yl)-pyrrolidin-1-ylmethyl]-benzonitrile]: the Ki at JAK1 came to 0.00487 µM; on TYK2, 0.169 µM; on JAK2 it was 0.0176 µM; at JAK3 it was 0.192 µM.
Regarding `COCC(=O)N1CCC(n2cnc3cnc4[nH]ccc4c32)CC1` [Example 192, 2-Methoxy-1-[4-(6H-1,2,3,5,6-tetraaza-as-indacen-1-yl)-piperidin-1-yl]-ethanone], the Ki on JAK1 was determined as 0.0245 µM; at TYK2, 0.388 µM; at JAK2, 0.0513 µM; at JAK3, 0.401 µM.
The corresponding values for `O=S(=O)(CCO)N1CCC(n2cnc3cnc4[nH]ccc4c32)CC1` [Example 194, 2-[4-(6H-1,2,3,5,6-Tetraaza-as-indacen-1-yl)-piperidine-1-sulfonyl]-ethanol] are 0.00391 µM, 0.0307 µM, 0.00532 µM and 0.282 µM.
The like results for `N#CCC1(N2CCC(n3cnc4cnc5[nH]ccc5c43)CC2)COC1` [Example 195, {3-[4-(6H-1,2,3,5,6-Tetraaza-as-indacen-1-yl)-piperidin-1-yl]-oxetan-3-yl}-acetonitrile] were, in that order, 0.00066 µM, 0.00216 µM, 0.00113 µM and 0.0276 µM.
The like results for `c1cc2c(ncc3ncn(C4CCc5[nH]ncc5C4)c32)[nH]1` (stereo not shown) [Example 198, 1-(4,5,6,7-Tetrahydro-1H-indazol-5-yl)-1,6-dihydro-1,2,3,5,6-tetraaza-as-indacene] were, in that order, 0.00638 µM, 0.0414 µM, 0.0102 µM and 0.0257 µM.
Regarding `C[C@@H](O)c1nc2cnc3[nH]ccc3c2n1[C@H]1CCCOC1` [Example 199, (R)-1-[(S)-1-(Tetrahydro-pyran-3-yl)-1,6-dihydro-1,2,3,5,6-tetraaza-as-indacen-2-yl]-ethanol], the inhibitory constant (Ki) was determined as 0.00249 µM on JAK1, 0.0276 µM on TYK2, 0.0675 µM at JAK2 and 0.11 µM at JAK3.
The like results for `c1ccc(CN2CCC(n3c(Cn4cccn4)nc4cnc5[nH]ccc5c43)CC2)cc1` [Example 201, 1-(1-Benzyl-piperidin-4-yl)-2-pyrazol-1-ylmethyl-1,6-dihydro-1,2,3,5,6-tetraaza-as-indacene] were, in that order, 0.00728 µM, 0.488 µM, 0.025 µM and 0.0122 µM.
`CN(Cc1nc2cnc3[nH]ccc3c2n1C1CCN(Cc2ccccc2)CC1)S(C)(=O)=O` [Example 203, N-[1-(1-Benzyl-piperidin-4-yl)-1,6-dihydro-1,2,3,5,6-tetraaza-as-indacen-2-ylmethyl]-N-methyl-methanesulfonamide]: the inhibitory constant (Ki) worked out at 0.0196 µM on JAK1, 0.258 µM on TYK2, 0.145 µM on JAK2 and 0.104 µM at JAK3.
The corresponding values for `c1cnn(Cc2nc3cnc4[nH]ccc4c3n2C2CCNCC2)c1` [Example 204, 1-Piperidin-4-yl-2-pyrazol-1-ylmethyl-1,6-dihydro-1,2,3,5,6-tetraaza-as-indacene] are 0.0919 µM, 1.47 µM, 1.54 µM and 0.862 µM.
Regarding `N#CCCN1CCC(n2c(Cn3cccn3)nc3cnc4[nH]ccc4c32)CC1` [Example 205, 3-[4-(2-Pyrazol-1-ylmethyl-6H-1,2,3,5,6-tetraaza-as-indacen-1-yl)-piperidin-1-yl]-propionitrile], the Ki was determined as 0.00642 µM on JAK1, 0.0865 µM on TYK2, 0.0233 µM on JAK2 and 0.0326 µM on JAK3.
The like results for `CC(=O)NCc1nc2cnc3[nH]ccc3c2n1C1CCNCC1` [Example 207, N-(1-Piperidin-4-yl-1,6-dihydro-1,2,3,5,6-tetraaza-as-indacen-2-ylmethyl)-acetamide] were, in that order, 0.0781 µM, 1.21 µM, 1.87 µM and 3.01 µM.
The corresponding values for `Cn1nccc1C(=O)NCc1nc2cnc3[nH]ccc3c2n1C1CCN(CCC#N)CC1` [Example 209, 2-Methyl-2H-pyrazole-3-carboxylic acid {1-[1-(2-cyano-ethyl)-piperidin-4-yl]-1,6-dihydro-1,2,3,5,6-tetraaza-as-indacen-2-ylmethyl}-amide] are 0.00217 µM, 0.0666 µM, 0.0176 µM and 0.0306 µM.
The like results for `Cc1nc2cnc3[nH]ccc3c2n1C1CCS(=O)(=O)CC1` [Example 210, 1-(1,1-Dioxo-hexahydro-1-thiopyran-4-yl)-2-methyl-1,6-dihydro-1,2,3,5,6-tetraaza-as-indacene] were, in that order, 0.147 µM, 0.514 µM, 0.642 µM and 0.645 µM.
For the compound `CS(=O)(=O)Nc1ccc(N2CCC(n3cnc4cnc5[nH]ccc5c43)CC2)nc1` [Example 211, N-[4-(6H-1,2,3,5,6-Tetraaza-as-indacen-1-yl)-3,4,5,6-tetrahydro-2H-[1,2]bipyridinyl-5′-yl]-methanesulfonamide], the Ki was 0.007 µM on JAK1, 0.0614 µM at TYK2, 0.0222 µM on JAK2 and 0.133 µM on JAK3.
The like results for `FCCN1CCC(n2cnc3cnc4[nH]ccc4c32)CC1` [Example 212, 1-[1-(2-Fluoro-ethyl)-piperidin-4-yl]-1,6-dihydro-1,2,3,5,6-tetraaza-as-indacene] were, in that order, 0.00217 µM, 0.0116 µM, 0.00321 µM and 0.059 µM.
The corresponding values for `CC(C)N[C@H]1CC[C@H](n2cnc3cnc4[nH]ccc4c32)CC1` [Example 214, Isopropyl-[4-(6H-1,2,3,5,6-tetraaza-as-indacen-1-yl)-cyclohexyl]-amine] are 0.00564 µM, 0.0825 µM, 0.0439 µM and 0.303 µM.
The like results for `CC(C)CC(=O)N[C@H]1CC[C@H](n2cnc3cnc4[nH]ccc4c32)CC1` [Example 215, 3-Methyl-N-[4-(6H-1,2,3,5,6-tetraaza-as-indacen-1-yl)-cyclohexyl]-butyramide] were, in that order, 0.00189 µM, 0.0927 µM, 0.00788 µM and 0.0559 µM.
Take `O=C(Cc1nc2cnc3[nH]ccc3c2n1C1CCN(Cc2ccccc2)CC1)N1CCC(F)(F)CC1` [Example 217, 2-[1-(1-Benzyl-piperidin-4-yl)-1,6-dihydro-1,3,5,6-tetraaza-as-indacen-2-yl)-1-(4,4-difluoro-piperidin-1-yl)-ethanone]: the Ki was found to be 0.0036 µM at JAK1, 0.608 µM on TYK2, 0.0487 µM on JAK2 and 0.00679 µM on JAK3.
The corresponding values for `O=C(N[C@H]1CC[C@H](n2cnc3cnc4[nH]ccc4c32)CC1)c1ccccc1` [Example 218, N-[4-(6H-1,3,5,6-Tetraaza-as-indacen-1-yl)-cyclohexyl]-benzamide] are 0.00679 µM, 0.0339 µM, 0.00607 µM and 0.0764 µM.
The corresponding values for `O=C(CC1CC1)N1CCC[C@@H](n2cnc3cnc4[nH]ccc4c32)C1` [Example 220, 2-Cyclopropyl-1-[(R)-3-(6H-1,3,5,6-tetraaza-as-indacen-1-yl)-piperidin-1-yl]-ethanone] are 0.00331 µM, 0.0293 µM, 0.00743 µM and 0.0283 µM.
The corresponding values for `N#CC1(C(=O)N2CCC[C@@H](n3cnc4cnc5[nH]ccc5c43)C2)CC1` [Example 221, 1-[(R)-3-(6H-1,3,5,6-Tetraaza-as-indacen-1-yl)-piperidine-1-carbonyl]-cyclopropanecarbonitrile] are 0.00252 µM, 0.00937 µM, 0.00392 µM and 0.00812 µM.
For the compound `O=C(Cc1ccccc1)N1CCC[C@@H](n2cnc3cnc4[nH]ccc4c32)C1` [Example 222, 2-Phenyl-1-[(R)-3-(6H-1,3,5,6-tetraaza-as-indacen-1-yl)-piperidin-1-yl]-ethanone], the Ki on JAK1 is 0.0138 µM; on TYK2 it was 0.555 µM; at JAK2 it was 0.0291 µM; on JAK3, 0.0481 µM.
The corresponding values for `CC(C)c1nc2cnc3[nH]ccc3c2n1C1CCN(Cc2ccccc2)CC1` [Example 223, 1-(1-Benzyl-piperidin-4-yl)-2-isopropyl-1,6-dihydro-1,3,5,6-tetraaza-as-indacene] are 0.00374 µM, 1.47 µM, 0.0244 µM and 0.00811 µM.
The corresponding values for `CC(C)Cc1nc2cnc3[nH]ccc3c2n1C1CCN(Cc2ccccc2)CC1` [Example 224, 1-(1-Benzyl-piperidin-4-yl)-2-isobutyl-1,6-dihydro-1,3,5,6-tetraaza-as-indacene] are 0.0142 µM, 1.98 µM, 0.0592 µM and 0.0206 µM.

Usually Ki stands for the equilibrium dissociation constant of an inhibitor or competing ligand from its target.

Values taken from US8461328B2, “Tricyclic heterocyclic compounds, compositions and methods of use thereof” (Genentech, Inc., priority 2010, dated 2013).
